The values that follow are results of earlier work, collected in patent US20230255891A1, “Highly Compactable and Durable Direct Compression Excipients and Excipient Systems” (SPI Pharma, Inc., priority 2009, published 2023).

For series [1] the following is noted: in water at 25.
For series [2] the following is noted: for 80° C. Solubility Kilos/100 Kilo solution: spray liquid temperature; for solubility in water: at 80 C in solution.

On to `OC[C@H]1O[C@@](CO)(O[C@H]2O[C@H](CO)[C@@H](O)[C@H](O)[C@H]2O)[C@@H](O)[C@@H]1O` [Sucrose], for which the “Solubility At 25 (g/100 g H2O)” value in series [1] is reported as 185 g/100 g H2O.

Consider `OC[C@@H](O)[C@H](O)[C@@H](O)CO` [Xylitol], for which the “Solubility At 25 (g/100 g H2O)” value in series [1] is 200 g/100 g H2O.

With `OC[C@@H](O)[C@@H](O[C@H]1O[C@@H](CO)[C@@H](O)[C@@H](O)[C@H]1O)[C@H](O)[C@@H](O)CO` [Maltitol], in series [2], the “80° C. Solubility Kilos/100 Kilo solution” value is 80.5 Kilos/100 Kilo solution and the solubility in water result is “about 80%”. The “Solubility At 25 (g/100 g H2O)” value in series [1] is recorded as 175 g/100 g H2O.

Regarding `OC[C@@H](O)[C@@H](O[C@@H]1O[C@H](CO)[C@H](O)[C@H](O)[C@H]1O)[C@H](O)[C@@H](O)CO` [Lactitol Monohydrate], in series [1], the “Solubility At 25 (g/100 g H2O)” value was 140 g/100 g H2O.

Turning to `OC[C@@H](O)[C@@H](O)[C@H](O)[C@H](O)CO` [Mannitol], in series [2], the “80° C. Solubility Kilos/100 Kilo solution” value is listed as 47.3 Kilos/100 Kilo solution and the solubility in water entry is on record as “about 47%”. The “Solubility At 25 (g/100 g H2O)” value in series [1] is given as 22 g/100 g H2O.

As to `O=C(CO)[C@@H](O)[C@H](O)[C@H](O)CO` [Fructose], the “Solubility At 25 (g/100 g H2O)” value in series [1] is 400 g/100 g H2O.

Take Isomalt: in series [2], the “80° C. Solubility Kilos/100 Kilo solution” value is recorded as 71 Kilos/100 Kilo solution.

With `OC[C@@H](O)[C@@H](O)CO` [Erythritol], in series [1], the “Solubility At 25 (g/100 g H2O)” value is given as 61 g/100 g H2O.

Turning to Anhydrous Isomalt, in series [1], the “Solubility At 25 (g/100 g H2O)” value is 39 g/100 g H2O.

Turning to `OC[C@@H](O)[C@@H](O[C@@H]1O[C@H](CO)[C@H](O)[C@H](O)[C@H]1O)[C@H](O)[C@@H](O)CO` [Lactitol], the “80° C. Solubility Kilos/100 Kilo solution” value in series [2] is given as 82 Kilos/100 Kilo solution.

In the case of `OCC(O)CO` [Glycerin], in series [1], the “Solubility At 25 (g/100 g H2O)” value is listed as “Soluble”.

For `OC[C@@H](O)[C@@H](O)[C@H](O)[C@@H](O)CO` [Sorbitol], in series [2], the “80° C. Solubility Kilos/100 Kilo solution” value is reported as 92 Kilos/100 Kilo solution and the solubility in water entry was “about 92%”. Also, the “Solubility At 25 (g/100 g H2O)” value in series [1] is reported as 235 g/100 g H2O.
